The test system of one assay is HUVECs. The class given is cell-based. An outline of the steps:
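Proliferation read-out: BrdU incorporation after 48-hour culture (37 ° C, 5% CO2) with graded peptide doses. Cells were in EBM with 2% FCS at 5,000 per well, driven by VEGF (5 ng/ml) or bFGF (10 ng/ml), added after ≥12-hour attachment.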

In assay [1] the test system is bFGF-induced angiogenesis in Matrigel plugs. As to the kind of experiment: Murine Matrigel plug angiogenesis assay. Format: in vivo, C57B1/6 mice. The note with it: 10-12 days of treatment, hemoglobin in plugs vs +bFGF/Buffer control. The protocol:
In order to assess the effect of the peptides in this invention on angiogenesis, an additional assay was used to assess antiangiogenic activity.
Briefly, Matrigel (BD Biosciences, San Jose, Calif.) is mixed with 0.5 μg/ml of bFGF. 0.5 ml of this Matrigel/bFGF mixture is then injected subcutaneously on the ventral abdominal surface at the level of the xiphoid process of C57B1/6 mice. Matrigel plugs, injected in absence of bFGF addition, are used as negative controls. Treatment with various peptides is initiated 12-18 hours later. Animals are treated by i.p. administration of peptides, dosed at 0.2mg/d of peptide dimers, and 1.4 mg/d of Pegylated peptide dimers. After 10-12 days of treatment, animals are euthanized, and the Matrigel plugs are surgically removed, and cleaned of mouse tissue, fascia, and fat. […] After centrifugation, supernatant for each plug is assayed for the presence of Hemoglobin using a Serum Hemoglobin analysis kit (Sigma Diagnostics, St. Louis, Mo.). Angiogenesis is defined as the fold increase of hemoglobin in the buffer control treated mouse Matrigel plugs, above the amount of hemoglobin in negative (−bFGF) control Matrigel plugs. For experimental peptide treated animals, the percent inhibition is defined as the inhibition seen when comparing positive control plugs (+bFGF/ Buffer treatment) with peptide treated plugs (+bFGF/ Peptide treatment).

For assay [2], the system named is Mouse Lewis lung carcinoma (LLC) cells. As to the kind of experiment: Proliferation assay of tumor cells (BrdU incorporation), LLC. The class given is cell-based. Particulars: 48 hours, read-out: Inhibitory Activity (IC50 uM) LLC. The protocol:
(§1) The antiproliferative activity of selected peptides of the present invention was assessed on several tumor cell lines. Mouse Lewis lung carcinoma (LLC) cells were routinely cultured to near confluency in DMEM media with 10% FCS added. The cells were trypsinized and plated in a 96-well plate at 5,000 cells per well per 100 μl media supplemented with 2% FCS and antibiotics. MDA-MB-231 cells were routinely cultured to near confluency in advanced DMEM media supplemented with 10% FCS. The cells were allowed to adhere to the plate for at least 12 hours. Then, whole media and various concentrations of peptide, were added to the wells. The cells were cultured for 48 hours at 37 ° C. in a 5% CO2 atmosphere. Cell proliferation was determined using a bromo-deoxyuridine (BrdU) incorporation method as described by the manufacturer. Inhibition of cell proliferation, was assessed by BrdU incorporation.
(§2) The ability of representative peptides of this invention for their ability to inhibit various tumor cells line proliferation are listed below in Table 2.

The test system of the next assay is MDA-MB-231 cells. Briefly: Proliferation assay of tumor cells (BrdU incorporation), MDA-MB-231. The class given is cell-based. The note with it: MDA-MB-231 proliferation, 48 hours, read-out: Inhibitory Activity (IC50 uM) MDA-MB-231. The protocol: as §1, §2
In general terms: Uptake of a labelled nucleoside into DNA is a usual measure of proliferation.

Setting [3] is: HUVEC proliferation, bFGF at 10 ng/ml or VEGF at 5 ng/ml, 48 hours, BrdU incorporation, read-out: IC50 on HUVECs.
The mark [4] stands for this setting: Pegylated peptide dimers, i.p. 1.4 mg/d.

Where two headings read alike, the source gives them in different places. Positions of bridges follow the written chain, without caps; N, C: chain ends. Residues, ends and D or L forms follow the SMILES beside them. Chains are numbered I, II in the order given. No end group written: not given here. Ida = iminodiacetic acid linker, its two carboxyls bind the Lys side-chain amines of two peptides, giving a homodimer

The results in this text go back to patent US20070203066A1, “Compositions and methods for inhibiting cellular proliferation” (priority 2005, published 2007).

For orientation: IC50 means the concentration at which inhibition is half-maximal. Consider “376 (Ac-ARRRRQRVAIYFK-NH2; not fully specified (residue 13); also: homodimer via Ida-PEG 30 kDa linker on Lys13 side chain) [compound 376]”, for which the half-inhibitory concentration (IC50) in the assay with HUVECs (setting [3]) was below 10 µM. The “Matrigel Model % Inhibition” value in assay [1] (setting [4]) came to 42.0%.
In the case of “375 (Ac-RRRRRQRVRIIFK-NH2; not fully specified (residue 13); also: homodimer via Ida-PEG 30 kDa linker on Lys13 side chain) [compound 375]”, the 50% inhibitory concentration (IC50) in the assay with HUVECs (setting [3]) was below 10 µM. In addition, in assay [1] (setting [4]), the “Matrigel Model % Inhibition” value was found to be 46.0%.
In the case of `CC[C@H](C)[C@H](NC(=O)[C@H](CCCNC(=N)N)NC(=O)[C@@H](NC(=O)[C@H](CCCNC(=N)N)NC(=O)[C@H](CCC(N)=O)NC(=O)[C@H](CCCNC(=N)N)NC(=O)[C@H](CCCNC(=N)N)NC(=O)[C@H](CCCNC(=N)N)NC(=O)[C@H](CCCNC(=N)N)NC(=O)[C@@H](N)CCCNC(=N)N)C(C)C)C(=O)N[C@H](C(=O)N[C@@H](Cc1ccccc1)C(=O)NCCCC[C@H](NC(=O)[C@H](Cc1ccccc1)NC(=O)[C@@H](NC(=O)[C@@H](NC(=O)[C@H](CCCNC(=N)N)NC(=O)[C@@H](NC(=O)[C@H](CCCNC(=N)N)NC(=O)[C@H](CCC(N)=O)NC(=O)[C@H](CCCNC(=N)N)NC(=O)[C@H](CCCNC(=N)N)NC(=O)[C@H](CCCNC(=N)N)NC(=O)[C@H](CCCNC(=N)N)NC(=O)[C@@H](N)CCCNC(=N)N)C(C)C)[C@@H](C)CC)[C@@H](C)CC)C(N)=O)[C@@H](C)CC` [Peptide 132] (I: H-RRRRRQRVRIIFK-NH2 / II: H-RRRRRQRVRIIF; amide I:13-II:C; N-terminus assumed), the half-inhibitory concentration (IC50) (in the assay on HUVECs (48 h); in assay [2]; in the assay with MDA-MB-231 cells) was below 10 µM throughout.
As to “228 (Ac-ARRRRQRVAIYFK; also: homodimer via Ida linker on side chain of Lys13) [compound 228]”, the IC50 in the assay with HUVECs (setting [3]) is below 10 µM. Further, the “Matrigel Model % Inhibition” value in assay [1] (peptide dimers, i.p. 0.2mg/d) is recorded as 55.0%.
For “279 (Ac-RRRRRQRVRIYFK-NH2; not fully specified (residue 13); also: homodimer via Ida linker on Lys13 side chain) [compound 279]”, in the assay on HUVECs (setting [3]), the IC50 was below 10 µM. In assay [1] (peptide dimers, i.p. 0.2mg/d), the “Matrigel Model % Inhibition” value was 56.0%.
Regarding `CC[C@H](C)[C@H](NC(=O)[C@H](CCCNC(=N)N)NC(=O)[C@@H](NC(=O)[C@H](Cc1c[nH]cn1)NC(=O)[C@H](CCC(N)=O)NC(=O)[C@H](CCCNC(=N)N)NC(=O)[C@H](Cc1c[nH]cn1)NC(=O)[C@H](CCCNC(=N)N)NC(=O)[C@H](CCCNC(=N)N)NC(=O)[C@H](CCCNC(=N)N)NC(C)=O)C(C)C)C(=O)N[C@H](C(=O)N[C@@H](Cc1ccccc1)C(=O)NCCCC[C@H](NC(=O)[C@H](Cc1ccccc1)NC(=O)[C@@H](NC(=O)[C@@H](NC(=O)[C@H](CCCNC(=N)N)NC(=O)[C@@H](NC(=O)[C@H](Cc1c[nH]cn1)NC(=O)[C@H](CCC(N)=O)NC(=O)[C@H](CCCNC(=N)N)NC(=O)[C@H](Cc1c[nH]cn1)NC(=O)[C@H](CCCNC(=N)N)NC(=O)[C@H](CCCNC(=N)N)NC(=O)[C@H](CCCNC(=N)N)NC(C)=O)C(C)C)[C@@H](C)CC)[C@@H](C)CC)C(N)=O)[C@@H](C)CC` [Peptide 244] (I: Ac-RRRHRQHVRIIFK-NH2 / II: Ac-RRRHRQHVRIIF; amide I:13-II:C), the IC50 (in the assay with HUVECs (48 h); in assay [2]; in the assay with MDA-MB-231 cells) was below 10 µM throughout.
Consider `CC[C@H](C)[C@H](NC(=O)[C@H](CCCNC(=N)N)NC(=O)[C@@H](NC(=O)[C@H](CCCNC(=N)N)NC(=O)[C@H](CCC(N)=O)NC(=O)[C@H](CCCNC(=N)N)NC(=O)[C@H](Cc1c[nH]cn1)NC(=O)[C@H](Cc1c[nH]cn1)NC(=O)[C@H](CCCNC(=N)N)NC(=O)[C@H](CCCNC(=N)N)NC(C)=O)C(C)C)C(=O)N[C@H](C(=O)N[C@@H](Cc1ccccc1)C(=O)NCCCC[C@H](NC(=O)[C@H](Cc1ccccc1)NC(=O)[C@@H](NC(=O)[C@@H](NC(=O)[C@H](CCCNC(=N)N)NC(=O)[C@@H](NC(=O)[C@H](CCCNC(=N)N)NC(=O)[C@H](CCC(N)=O)NC(=O)[C@H](CCCNC(=N)N)NC(=O)[C@H](Cc1c[nH]cn1)NC(=O)[C@H](Cc1c[nH]cn1)NC(=O)[C@H](CCCNC(=N)N)NC(=O)[C@H](CCCNC(=N)N)NC(C)=O)C(C)C)[C@@H](C)CC)[C@@H](C)CC)C(N)=O)[C@@H](C)CC` [Peptide 240] (I: Ac-RRHHRQRVRIIFK-NH2 / II: Ac-RRHHRQRVRIIF; amide I:13-II:C), for which the IC50 (with HUVECs (48 h); in assay [2]; in the assay with MDA-MB-231 cells) was below 10 µM throughout.
On to “315 (Ac-ARRRRQAVAIYFK(Ida)-NH2; also: homodimer via Ida linker on Lys13 side chain) [compound 315]”, for which the IC50 with HUVECs (setting [3]) was below 10 µM. The “Matrigel Model % Inhibition” value in assay [1] (peptide dimers, i.p. 0.2mg/d) is 52.0%.
In the case of “167 (Ac-RRRRRQRVRIIFK; not fully specified (C-terminus); also: homodimer via Ida linker on Lys13 side chains) [compound 167]”, the IC50 with HUVECs (setting [3]) is below 10 µM. For the same compound, the “Matrigel Model % Inhibition” value in assay [1] (peptide dimers, i.p. 0.2mg/d) was determined as 42.0%.
With `CC[C@H](C)[C@H](NC(=O)[C@H](C)NC(=O)[C@@H](NC(=O)[C@H](CCCNC(=N)N)NC(=O)[C@H](CCC(N)=O)NC(=O)[C@H](CCCNC(=N)N)NC(=O)[C@H](C)NC(=O)[C@H](Cc1c[nH]cn1)NC(=O)[C@H](CCCNC(=N)N)NC(=O)[C@H](C)NC(C)=O)C(C)C)C(=O)N[C@H](C(=O)N[C@@H](Cc1ccccc1)C(=O)NCCCC[C@H](NC(=O)[C@H](Cc1ccccc1)NC(=O)[C@@H](NC(=O)[C@@H](NC(=O)[C@H](C)NC(=O)[C@@H](NC(=O)[C@H](CCCNC(=N)N)NC(=O)[C@H](CCC(N)=O)NC(=O)[C@H](CCCNC(=N)N)NC(=O)[C@H](C)NC(=O)[C@H](Cc1c[nH]cn1)NC(=O)[C@H](CCCNC(=N)N)NC(=O)[C@H](C)NC(C)=O)C(C)C)[C@@H](C)CC)[C@@H](C)CC)C(N)=O)[C@@H](C)CC` [Peptide 214] (I: Ac-ARHARQRVAIIFK-NH2 / II: Ac-ARHARQRVAIIF; amide I:13-II:C), the IC50 (in the assay with HUVECs (48 h); in assay [2]; in the assay on MDA-MB-231 cells) was above 30 µM each time.
Regarding “381 (Ac-ARRRRQAVAIYFK-NH2; not fully specified (residue 13); also: homodimer via Ida-PEG 30 kDa linker on Lys13 side chain) [compound 381]”, in the assay with HUVECs (setting [3]), the concentration for half-maximal inhibition (IC50) is below 10 µM. Moreover, the “Matrigel Model % Inhibition” value in assay [1] (setting [4]) stood at 51.0%.
With “331 (Ac-ARRRRQRVAIYFK-NH2; not fully specified (residue 13); also: homodimer via Lys13 side chain, GP3 linker) [compound 331]”, the half-inhibitory concentration (IC50) in the assay with HUVECs (setting [3]) is below 10 µM. In assay [1] (peptide dimers, i.p. 0.2mg/d), the “Matrigel Model % Inhibition” value turned out to be 44.0%.
As to “267 (Ac-RRRRRQAVAIYFK-NH2; not fully specified (residue 13); also: homodimer via Ida linker on Lys13 side chain) [compound 267]”, in the assay on HUVECs (setting [3]), the half-maximal inhibitory concentration (IC50) was below 10 µM. Besides, the “Matrigel Model % Inhibition” value in assay [1] (peptide dimers, i.p. 0.2mg/d) is on record as 36.0%.
